# Source: patent publication US7427599B2, “Biologically active peptide comprising Tyrosyl-seryl-valine(YSV)” (CMS Peptides Patent Holding Company Limited, priority 2003, dated 2008)
# Peptide text beside a SMILES is read from it.
# Legend:
# human leukemia K562 = assay: Growth of nude mice-transplanted human leukemia K562; assay type: in vivo, nude mice (BALB/C (nu/nu))
# Protocol: K-562 cells were maintained in RPMI-1640 medium with 10% FBS at 37° C., 5% CO2.
# K562 cells at log phase were adjusted to 1.6×10^8/ml with RPMI-1640. 0.1 ml of this was subcutaneously injected to the right flank of the healthy nude mice to form the leukemia mice model.
# The mice bearing human leukemia K562 cells were randomized into groups of: saline control (0.2 ml/day), and YSV (160 μg/kg/day). The test substance was dissolved in 0.2 ml saline and administration of the test substance by intraperitoneal injection was started on the next day after the K562 inoculation, once per day for 30 consecutive days.
# The general conditions of the mice was examined daily and the tumor size was measured in every 3-4 days. Tumor volume (mm^3) V=(⅙)πXYZ where X, Y, and Z were the diameters of the tumor on the three planes.
# On the next day after the last test substance administration, the tumors were excised, the weight of tumor was recorded and the tumor volume was measured. Tumor growth inhibition index (%)=(mean tumor weight of control group—mean tumor weight of treatment group)/mean tumor weight of control group×100)
# All the data were shown as arithmetic mean ±SD. The data were analyzed using the ANOVA test of the SPSS software. P<0.05 was accepted as having statistical significance.
# melanoma B16 = assay: Growth of C57BL/6 mice-transplanted melanoma B16; assay type: in vivo; settings: for The Inhibition rate (%) / Tumor weight: 20 consecutive days; for Tumor weight: saline 2.64 ± 0.68
# Protocol: B16 cells were maintained in RPMI-1640 medium with 10% FBS at 37° C., 5% CO2. Mouse B16 melanoma culture at log phase was adjusted to 2.5×10^6/ml with Hank's solution. 0.2 ml of this was subcutaneously injected to the right axilla of healthy C57 BL/6 mice to form the melanoma mice model. […] From the next day after the tumor implantation, the general conditions of the mice and the growth of the tumor were observed daily. On the next day after the last test substance administration, the tumors were extirpated and the weights of tumor were measured. […] The results were presented as arithmetic mean ±SD. Statistical analysis was performed using the ANOVA test of the SPSS software.
# [1] = test system: Human liver cancer BEL7402 cells; assay: Proliferation of cultured human liver cancer BEL7402 cells in vitro (MTT); assay type: cell-based; settings: for % inhibition / OD value: 48 hours; for OD value: MTT OD570nm, negative control 0.36 ± 0.01
# Protocol: Human liver cancer BEL7402 cells at logarithmic growth phase were detached by incubating for 2 to 3 minutes with phosphate buffer saline pH7.4 (PBS) containing 0.05% trypsin and 0.02% EDTA. The cells were examined by inverted phase contrast microscopy. The supernatant was removed after cytoplasm pyknosis and dilatation of cell compartment were observed. A few milliliters of RPMI-1640 culture medium with 10% FBS was added to terminate the digestion. The cells were harvested by gently blowing with a pipette. The suspended cells were collected by centrifugation at 150 g for 10 minutes, and washed twice by cold D-Hank's solution with re-suspension and centrifugation. The washed cells were re-suspended in RPMI-1640 medium with 10% FBS and adjusted to density of 5×10^4/ml. The treated BEL7402 cells were placed onto a 96 wells cell culture plate, 100 μl/well. The cells were incubated for 24 hours at 37° C., 5% CO2 for re-activation and attachment.
# The experiment included three testing groups with different concentrations of YSV and a negative control. The final concentrations of YSV in culture medium were 20 μg/ml, 10 μg/ml, and 5 μg/ml. The YSV solution was replaced by RPMI-1640 culture medium with 10% FBS in the negative control group. Each group contained five parallel wells. The cells were incubated for 48 hours at 37° C., 5% CO2.
# (§1) The cells were then pelleted by centrifugation at 150 g for 10 minutes. After the supernatant was removed, 100 μl/well MTT of 0.5 mg/ml in RPMI-1640 was added to the cell pellets and the cells were re-suspended by shaking for 2 minutes. Incubation was continued for 4 hours. The supernatant was removed after centrifugation at 150 g for 10 minutes. After blotted dry by filter paper, 100 μl/well 40 mM HCl-2-propanol was added to the cell pellets and shaken for 3 minutes. OD570nm of each well referenced at 630 nm was obtained by using ELISA reader.
# [2] = test system: Human cervical carcinoma Hela cells; assay: Inhibition of growth of human cervical carcinoma Hela cells in vitro (MTT); assay type: cell-based; settings: for % inhibition / OD570 nm: 48 hours; for OD570 nm: MTT, negative control 0.24 ± 0.01
# Protocol: Human cervical carcinoma Hela cells at logarithmic growth phase were detached by incubating for 2 to 3 minutes with PBS containing 0.05% trypsin and 0.02% EDTA. The cells were examined by inverted phase contrast microscopy. The supernatant was removed after cytoplasm pyknosis and dilatation of cell compartment were observed. A few milliliters of RPMI-1640 medium with 10% FBS were added to terminate the digestion. The cells were harvested by gently blowing with a pipette. The cells were collected by centrifugation at 150 g for 10 minutes, and washed twice by cold Hank's solution with re-suspension and centrifugation. The cell pellets were re-suspended in RPMI-1640 medium with 10% FBS and adjusted to density of 5×10^4/ml. The treated cells were placed onto a 96 wells cell culture plate, 100 μl/well. The cells were incubated for 24 hours at 37° C., 5% CO2 for re-activation and attachment.
# The experiment included two testing groups with different concentrations of YSV in culture medium, and a negative control with culture medium only. The final concentrations of YSV were 10 μg/ml and 5 μg/ml. Each group contained five parallel wells. 100 μl/well testing solution was added to the treated cells. The cells were incubated for 48 hours at 37° C., 5% CO2.
# as §1, with “were” for “were then”, “The” for “After the”, “discarded and” for “removed,”, “discarded” for “removed”, “OD570 nm” for “OD570nm”
# [3] = suitable dosage, p<0.05 vs saline
smiles,measurement,setting,value
"CC(C)[C@H](NC(=O)[C@H](CO)NC(=O)[C@@H](N)Cc1ccc(O)cc1)C(=O)O [YSV, L-Tyrosyl-L-seryl-L-valine] (H-Tyr-Ser-Val-OH)",Inhibition index (%),"human leukemia K562; 160 μg/kg/day intraperitoneal, 30 consecutive days, from tumor weight vs saline",37.9%
same,Tumor weight,"human leukemia K562; 160 μg/kg/day intraperitoneal, 30 consecutive days, saline 4.75 ± 2.21",2.95 ± 1.58 g
same,Tumor volume (cm3),"human leukemia K562; 160 μg/kg/day intraperitoneal, 30 consecutive days, saline 5.08 ± 2.15",3.15 ± 1.74 cm3
same,inhibition of growth of nude mice-transplanted K562 (conclusion),human leukemia K562; [3],able to inhibit the growth of nude mice-transplanted significantly human leukemia K562
same,The Inhibition rate (%),melanoma B16; 320 μg/kg/day intraperitoneal,39.6%
same,Tumor weight,melanoma B16; 320 μg/kg/day intraperitoneal,1.60 ± 1.21 g
same,The Inhibition rate (%),melanoma B16; 640 μg/kg/day intraperitoneal,44.6%
same,Tumor weight,melanoma B16; 640 μg/kg/day intraperitoneal,1.47 ± 0.92 g
same,inhibition of growth of B16 melanoma in C57BL/6 mice (conclusion),melanoma B16; [3],able to inhibit the growth of B16 melanoma in C57BL/6 mice
same,inhibition of growth of BEL7402 cells in vitro (conclusion),"[1]; 5 μg/ml to 20 μg/ml, p<0.05",able to inhibit the growth of human hepatocellular carcinoma BEL7402 cells in vitro
same,% inhibition,[1]; 5 μg/ml,9.8%
same,OD value,[1]; 5 μg/ml,0.31 ± 0.01
same,% inhibition,[1]; 10 μg/ml,38.0%
same,OD value,[1]; 10 μg/ml,0.22 ± 0.01
same,% inhibition,[1]; 20 μg/ml,23.7%
same,OD value,[1]; 20 μg/ml,0.27 ± 0.01
same,inhibition of growth of Hela cells in vitro (conclusion),"[2]; 5 μg/ml to 10 μg/ml, p<0.05",able to inhibit the growth of human cervical carcinoma Hela cells in vitro
same,% inhibition,[2]; 5 μg/ml,18.4%
same,OD570 nm,[2]; 5 μg/ml,0.22 ± 0.00
same,% inhibition,[2]; 10 μg/ml,19.6%
same,OD570 nm,[2]; 10 μg/ml,0.22 ± 0.01
